Laboratory results reported in paper PMC6112376, “Comprehensive Analyses and Prioritization of Tox21 10K Chemicals Affecting Mitochondrial Function by in-Depth Mechanistic Studies” (Environmental Health Perspectives, 2018).
Read-outs that look alike come from different tables or passages of the source.

Key:
[1] = test system: HepG2 cells; conditions: cited from earlier work
[2] = test system: HepG2 cells; experiment: cells; conditions: Homo sapiens; for IC50: HepG2, read-out: MMP assays IC50 (µM) HepG2; for Emax: HepG2, read-out: MMP assays efficacy (%) HepG2
[3] = test system: rat primary hepatocytes; experiment: MMP assay in rat primary hepatocytes; conditions: for IC50: Rattus norvegicus, Hepatocyte, read-out: MMP assays IC50 (µM) Rat Hepatocytes; for MMP assays efficacy (%) Rat Hepatocytes / MMP assays IC50 (µM) Rat Hepatocytes: mean ± SD of three experiments
[4] = read-out: MMP assays IC50 (µM) qHTS-HepG2
[5] = read-out: MMP assays IC50 (µM), qHTS-HepG2

CC1=NN(c2ccccc2)C(=O)C1 [Compound 1-Phenyl-3-methyl-5-pyrazolone]
MMP assays efficacy (%) qHTS-HepG2 [1]: -121±16%
IC50 [1, 4]: 31.8 ± 4.28 µM
IC50 [2]: 28.2 µM
Emax [2]: 82%
IC50 [3]: 25.8 ± 10.1 µM
MMP assays efficacy (%) Rat Hepatocytes [3]: -62±9%

O=c1cc(-c2ccccc2)oc2cc(O)cc(O)c12 [Chrysin]
MMP assays efficacy (%) qHTS-HepG2 [1]: -103±9%
IC50 [1, 4]: 5.05 ± 2.76 µM
IC50 [2]: 7.08 µM
Emax [2]: 105%
IC50 [3]: 30.6 ± 28.4 µM
MMP assays efficacy (%) Rat Hepatocytes [3]: -78±36%

O=C(Nc1ccc(O)cc1)c1ccccc1O [Osalmid]
MMP assays efficacy (%) qHTS-HepG2 [1]: -96±3%
IC50 [1, 5]: 6.68 ± 0.77 µM
IC50 [2]: 6.31 µM
Emax [2]: 101%
IC50 [3]: 30 ± 21.3 µM
MMP assays efficacy (%) Rat Hepatocytes [3]: -93±20%

COc1ccc(/C=C/C(=O)c2ccc(OC)cc2OC)cc1 [Metochalcone]
MMP assays efficacy (%) qHTS-HepG2 [1]: -72±12%
IC50 [1, 5]: 18.2 ± 10.1 µM
IC50 [2]: 39.8 µM
Emax [2]: 119%
IC50 [3]: 25.5 ± 18.2 µM
MMP assays efficacy (%) Rat Hepatocytes [3]: -82±19%

O=C(O)c1ccccc1Nc1cccc(C(F)(F)F)c1 [Flufenamic acid]
MMP assays efficacy (%) qHTS-HepG2 [1]: -129±20%
IC50 [1, 5]: 36.6 ± 1.87 µM
IC50 [2]: 17.3 µM
Emax [2]: 108%
IC50 [3]: 14.5 ± 4.99 µM
MMP assays efficacy (%) Rat Hepatocytes [3]: -111±31%

CC/C(=C(/CC)c1ccc(O)cc1)c1ccc(O)cc1 [Diethylstilbestrol]
MMP assays efficacy (%) qHTS-HepG2 [1]: -105±14%
Emax [2]: 112%
IC50 [3]: 25.2 ± 21.7 µM

O=C1c2ccccc2C(=O)c2c(O)ccc(O)c21 [1,4-Dihydroxyanthracene-9,10-dione]
MMP assays efficacy (%) qHTS-HepG2 [1]: -103±19%
IC50 [1, 4]: 5.24 ± 3.43 µM
IC50 [2]: 8.91 µM
Emax [2]: 41%
IC50 [3]: 4.81 ± 8.07 µM
MMP assays efficacy (%) Rat Hepatocytes [3]: -25±3%

N#CC(C#N)=Cc1ccc(O)c(O)c1 [Tyrphostin 23]
MMP assays efficacy (%) qHTS-HepG2 [1]: -107±6%
IC50 [1, 5]: 17.7 ± 6.46 µM
IC50 [2]: 17.3 µM
Emax [2]: 103%
MMP assays IC50 (µM) Rat Hepatocytes [3]: inactive
MMP assays efficacy (%) Rat Hepatocytes [3]: inactive

CCCCC(CC)CN1C(=O)C2C3C=CC(C3)C2C1=O (centres unmarked) [MGK-264]
MMP assays efficacy (%) qHTS-HepG2 [1]: -65±7%
IC50 [1, 5]: 15.4 ± 10.5 µM
IC50 [2]: 28.2 µM
Emax [2]: 84%
IC50 [3]: 17.8 ± 25.1 µM
MMP assays efficacy (%) Rat Hepatocytes [3]: -55±25%

CCCCCOC(=O)c1ccc(O)cc1 [Pentylparaben]
MMP assays efficacy (%) qHTS-HepG2 [1]: -119±16%
IC50 [1, 5]: 8.74 ± 1.65 µM
IC50 [2]: 14.1 µM
Emax [2]: 114%
MMP assays IC50 (µM) Rat Hepatocytes [3]: inactive
MMP assays efficacy (%) Rat Hepatocytes [3]: inactive

ON=C1C=CC(=NO)C=C1 [p-Benzoquinone dioxime]
MMP assays efficacy (%) qHTS-HepG2 [1]: -71±6%
IC50 [1, 5]: 43.3 ± 14.9 µM
IC50 [2]: 25.1 µM
Emax [2]: 58%
MMP assays IC50 (µM) Rat Hepatocytes [3]: inactive
MMP assays efficacy (%) Rat Hepatocytes [3]: inactive

CC(C)(C)c1ccc(O)c(C(C)(C)C)c1 [2,4-Di-tert-butylphenol]
MMP assays efficacy (%) qHTS-HepG2 [1]: -95±5%
IC50 [1, 4]: 3.5 ± 0.73 µM
IC50 [2]: 3.98 µM
Emax [2]: 101%
IC50 [3]: 24 ± 16.6 µM
MMP assays efficacy (%) Rat Hepatocytes [3]: -131±66%

CCCOC(=O)c1cc(O)c(O)c(O)c1 [Propyl gallate]
MMP assays efficacy (%) qHTS-HepG2 [1]: -88±15%
IC50 [1, 5]: 42.3 ± 3.93 µM
IC50 [2]: 35.5 µM
Emax [2]: 97%
MMP assays IC50 (µM) Rat Hepatocytes [3]: inactive
MMP assays efficacy (%) Rat Hepatocytes [3]: inactive

Nc1ccc(N)c([N+](=O)[O-])c1 [2-Nitro-1,4-phenylenediamine]
MMP assays efficacy (%) qHTS-HepG2 [1]: -85±13%
IC50 [1, 4]: 7.07 ± 6.53 µM
IC50 [2]: 12.6 µM
Emax [2]: 87%

Cc1cc(/C=C/c2ccc3cc(N(C)C)ccc3[n+]2C)c(C)n1-c1ccccc1 [Pyrvinium pamoate]
MMP assays efficacy (%) qHTS-HepG2 [1]: -108±33%
IC50 [1, 5]: 2.02 ± 1.2 µM
IC50 [2]: 0.17 µM
Emax [2]: 91%

O=C1CN(/N=C/c2ccc([N+](=O)[O-])o2)C(=O)N1 [Nitrofurantoin]
MMP assays efficacy (%) qHTS-HepG2 [1]: -70±6%
IC50 [1, 5]: 26.3 ± 6.35 µM
Emax [2]: 87%
